Results as given in publication PMC9330635, “Halogenated Pyrrolopyrimidines with Low MIC on Staphylococcus aureus and Synergistic Effects with an Antimicrobial Peptide” (Antibiotics, 2022).
In brackets after ≈: the same amount, converted by molar mass. Like-named read-outs stand apart in the source and are kept apart here.

What was measured:
E. coli (MG1655) = test: MIC by broth microdilution, E. coli; type: cell-based, Escherichia coli; details: for MIC: Escherichia coli, E. coli MG1655, broth microdilution
Experimental: (§1) In this study, we have, therefore, altered our strategy and used minimal inhibitory concentration assays to identify and improve antibacterial agents. A total of 10 pyrrolopyrimidines with variation of the 4-amino group were assayed for their MIC in E. coli (MG1655) and S. aureus (ATCC29213) using the broth microdilution method. Subsequently, the compounds were also counter-screened for their inhibition of human EGFR.
(§2) The MIC of compound 1–21 towards Escherichia coli (MG1655) and Staphylococcus aureus (ATCC29213) was determined following the standards that were recommended by the Clinical and Laboratory Standards Institute (CLSI) for the broth microdilution method. Briefly, the bacterial suspensions were adjusted to 0.5 McFarland standard (~1 × 10^8 colony forming units (CFU)/mL) and diluted 1:200 in Cation-Adjusted Mueller-Hinton Broth (CAMHB, […], […]). The suspension was subsequently added to polypropylene microtiter plates (100 µL/well, ~5 × 10^4 CFU/well) that were already prepared with different concentrations of the various halogenated fused pyrimidines (11 µL/well, two-fold serial dilutions). The plates were incubated at 37 °C overnight before inspection for visible growth and determination of the MIC values.

S. aureus (ATCC29213) = test: MIC by broth microdilution, S. aureus; type: cell-based, Staphylococcus aureus; details: Staphylococcus aureus
Experimental: as §1, §2

S. aureus = test: MIC towards S. aureus in combination with the peptide betatide; type: cell-based, Staphylococcus aureus; details: betatide 8 mg/L (half its MIC)
Experimental: The concentration of betatide was 8 mg/L, which corresponds to half the MIC concentration.
as §2

human EGFR = target: T1, human EGFR (Homo sapiens, UniProt P00533); test: Enzymatic EGFR (ErbB1) inhibition, Z'-LYTE; type: biochemical; details: for inhibition at 0.1 µM: 100 nM compound, ATP equal to KM; for IC50: average of 2 titration curves, ATP equal to apparent KM, read-out: IC50 towards EGFR
T1 construct: purchased Invitrogen (ThermoFisher), assay service
T1 sequence (P00533 25-1210): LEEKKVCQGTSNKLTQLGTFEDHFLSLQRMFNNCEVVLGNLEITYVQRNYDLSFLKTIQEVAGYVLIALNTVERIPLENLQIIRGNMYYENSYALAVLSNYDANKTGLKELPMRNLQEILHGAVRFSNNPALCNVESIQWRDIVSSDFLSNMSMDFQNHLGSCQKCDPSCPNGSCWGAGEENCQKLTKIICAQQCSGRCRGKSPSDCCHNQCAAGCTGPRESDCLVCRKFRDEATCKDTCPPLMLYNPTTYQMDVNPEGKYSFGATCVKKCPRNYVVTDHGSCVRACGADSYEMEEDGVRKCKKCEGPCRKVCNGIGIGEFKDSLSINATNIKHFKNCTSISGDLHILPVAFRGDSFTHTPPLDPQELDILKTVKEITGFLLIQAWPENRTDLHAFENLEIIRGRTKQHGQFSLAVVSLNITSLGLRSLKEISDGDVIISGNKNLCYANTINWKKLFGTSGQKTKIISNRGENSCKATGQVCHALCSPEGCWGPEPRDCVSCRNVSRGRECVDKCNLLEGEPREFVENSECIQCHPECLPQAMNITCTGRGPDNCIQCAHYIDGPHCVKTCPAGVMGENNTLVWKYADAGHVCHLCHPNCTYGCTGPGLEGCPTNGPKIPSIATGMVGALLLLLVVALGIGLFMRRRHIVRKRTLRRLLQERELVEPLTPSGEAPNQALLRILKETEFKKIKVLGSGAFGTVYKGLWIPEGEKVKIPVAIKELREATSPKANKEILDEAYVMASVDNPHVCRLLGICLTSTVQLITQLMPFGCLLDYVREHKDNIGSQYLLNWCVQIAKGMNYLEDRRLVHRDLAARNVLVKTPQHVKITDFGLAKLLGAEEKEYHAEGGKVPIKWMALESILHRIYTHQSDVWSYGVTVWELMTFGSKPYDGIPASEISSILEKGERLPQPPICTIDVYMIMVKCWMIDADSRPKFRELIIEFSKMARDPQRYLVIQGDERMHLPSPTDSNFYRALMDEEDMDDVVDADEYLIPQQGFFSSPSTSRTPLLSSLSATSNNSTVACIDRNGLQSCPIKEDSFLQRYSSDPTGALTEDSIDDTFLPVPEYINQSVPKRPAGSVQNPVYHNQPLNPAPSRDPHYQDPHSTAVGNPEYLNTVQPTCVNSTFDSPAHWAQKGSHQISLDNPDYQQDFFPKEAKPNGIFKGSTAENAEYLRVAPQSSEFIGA
Experimental: The compounds were supplied in a 10 mM DMSO solution, and enzymatic EGFR (ErbB1) inhibition potency was determined by Invitrogen (ThermoFisher) using their Z’-LYTE® assay technology. The compounds were tested for their inhibitory activity at 100 nM in duplicates. The IC50 values that were reported for 1 and 5 are based on the average of 2 titration curves (20 data points), and were calculated from activity data with a four-parameter logistic model using SigmaPlot (Windows Version 12.0 from Systat Software, Inc., Palo Alto, CA, USA). Unless stated otherwise, the ATP concentration that was used was equal to apparent KM.

E. coli TMPK [1] = target: T2, E. coli TMPK (Escherichia coli, UniProt P0A720); test: E. coli TMPK assay (ProFoldin kit); type: biochemical; details: enzymatic; read-out: IC50 towards E. coli TMPK
T2 construct: purchased ProFoldin TMK100KE
T2 sequence (P0A720 whole entry): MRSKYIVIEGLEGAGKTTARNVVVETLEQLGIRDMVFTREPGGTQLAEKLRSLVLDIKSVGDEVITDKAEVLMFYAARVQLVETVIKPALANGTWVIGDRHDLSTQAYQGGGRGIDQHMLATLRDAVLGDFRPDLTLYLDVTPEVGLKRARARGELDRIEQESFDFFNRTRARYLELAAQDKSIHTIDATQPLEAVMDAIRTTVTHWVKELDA
Experimental: (§3) The inhibition of EcTMPK was determined by Profoldin using the E. coli Thymidylate Kinase Assay Kit Plus (ProFoldin, Catalog No. TMK100KE, Hudson, MA, USA), where dTMP was phosphorylated by ATP that was catalyzed by TMPK. The assay was run in 96-well black plates at 36 °C. The formation of ADP was measured by adding a fluorescent dye and measuring the fluorescence emission at 535 nm after excitation at 485 nm. The readout was corrected for emission from the assay cocktail and DMSO. An ADP control assay was also performed to correct for possible interference with ADP detection. Single-point inhibitions were measured at 8.3 µM inhibitor concentrations. The IC50-values were determined from a similar assay, where 2-fold dilution series from […] were used. The assay towards the human enzyme was run similarly but using the Human Thymidylate Kinase Assay Kit Plus-500 (Catalog Number: HTMK500KE, ProFoldin, Hudson, MA, USA).

human TMPK = target: T3, human TMPK (Homo sapiens, UniProt P23919); test: Human TMPK assay (ProFoldin kit); type: biochemical; details: enzymatic; read-out: IC50 towards human TMPK
T3 construct: purchased ProFoldin HTMK500KE
T3 sequence (P23919 1-212): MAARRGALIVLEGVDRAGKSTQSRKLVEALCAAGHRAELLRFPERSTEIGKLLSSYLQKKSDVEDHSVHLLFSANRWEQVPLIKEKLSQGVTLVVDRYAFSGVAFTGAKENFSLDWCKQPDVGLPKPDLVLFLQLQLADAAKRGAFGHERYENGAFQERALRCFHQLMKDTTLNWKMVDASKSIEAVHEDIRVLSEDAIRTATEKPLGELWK
Experimental: as §3

[2] = test system: panel of 50 human kinases (EGFR most inhibited); test: Kinase panel, Z'-LYTE, 50 human kinases; type: biochemical
Experimental: As the starting point of this study was the EGFR inhibitor PKI-166 (1), there is an obvious risk of kinase off-target effects for the bromo derivative 5. Therefore, we profiled 5 towards a panel of 50 human kinases. […] Based on our previous experience, it is assumed that the EGFR inhibiting activity of 5 is too low to cause in vivo effects.
The compounds were supplied in a 10 mM DMSO solution, and enzymatic kinase inhibition potency was determined by ThermoFisher (Invitrogen, Waltham, MA, USA) using their Z’-LYTE® assay technology, at 500 nM in duplicates. The ATP concentration that was used was equal to Km, except when this service was not provided, and other concentrations had to be used.

E. coli TMPK [3] = target: T2, E. coli TMPK; parameters: method as in doi:10.1002/slct.202103796; details: previous study; read-out: IC50 against E. coli TMPK; cited from earlier work
[4] = ATCC29213, S. aureus, single agent (Table 3), read-out: Single Comp. MIC
[5] = S. aureus ATCC29213, broth microdilution, read-out: S. aureus MIC

| Structure (SMILES) | MIC (E. coli (MG1655)) | MIC (S. aureus (ATCC29213); [4]) | MIC (S. aureus (ATCC29213); [5]) | Combination with Betatide MIC (S. aureus) | inhibition at 0.1 µM (human EGFR) | IC50 (human EGFR) | IC50 (E. coli TMPK [1]) | IC50 (human TMPK) | EGFR inhibition in kinase panel ([2]; 500 nM test concentration) | Inhibition of all the other kinases of the panel ([2]; 500 nM, 50 human kinases, other than EGFR) | Activity towards E. coli in culture (in words) (E. coli (MG1655); culture, MIC assay) | IC50 (E. coli TMPK [3]) |
| --- | --- | --- | --- | --- | --- | --- | --- | --- | --- | --- | --- | --- |
| C[C@@H](Nc1ncnc2[nH]c(-c3ccc(O)cc3)cc12)c1ccc(Br)cc1 [Compound 5, (R)-4-(4-((1-(4-Bromophenyl)ethyl)amino)-7H-pyrrolo[2,3-d]pyrimidin-6-yl)phenol] | > 128 µg/mL | 8 µg/mL (≈ 19.5 µM) | 8 µg/mL (≈ 19.5 µM) | 1 µg/mL | 81% | 0.025 µM | 5 µM | > 100 µM | 91% | very low inhibition | – | – |
| C[C@@H](Nc1ncnc2[nH]c(-c3ccc(O)cc3)cc12)c1ccccc1 [Compound 1, (R)-4-(4-((1-Phenylethyl)amino)-7H-pyrrolo[2,3-d]pyrimidin-6-yl)phenol, reference compound] | > 128 µg/mL | 64 µg/mL (≈ 194 µM) | 64 µg/mL (≈ 194 µM) | 8 µg/mL | 100% | < 0.001 µM | – | – | – | – | did not possess any activity | 15 µM |
